Earlier results, collected in patent publication US20090306023A1, “STABLE ORGANIC PEROXIDE COMPOSITIONS” (priority 2005, published 2009).

Settings: room temperature

- limit of solubility in water: approximately 0.2%
SMILES: O=C(O)c1ccccc1O [Salicylic acid, 2-hydroxybenzoic acid]
